Data taken from PubChem BioAssay AID463229 (Broad Institute, 2010).

test system: INS-1E rat beta cells, no cytokines, CellTiter-Glo ATP, 48 h; assay: cytokine-free beta-cell viability effect – INS-1E rat cells, ATP luminescence, cherry pick, counter-screen for beta-cell apoptosis protection project, dose response (AID 463229)

SMILES | AC50 [µM]
CCOc1ccc(-n2c(-c3ccc(OC)cc3)c[n+]3c2CCCCC3)cc1 | 0.289
O=C(Oc1c(CN2CCOCC2)cc(Cl)c2cccnc12)c1cccs1 | 16
COc1ccc(OC)c2c1C(=O)C(Cl)=C(Cl)C2=O | 8.18
C#CCOCCOCCOCCNc1nc(N2CCN(C(=O)CCCCCCCCCCNC(=O)[C@H]([C@@H](C)CC)n3cc(CCCCCN)nn3)CC2)nc(N2CCN(C(=O)CCCCCCCCCCNC(=O)[C@H]([C@@H](C)CC)n3cc(CCCCN=C(N)N)nn3)CC2)n1 | 6.72
CCCCOc1cc(NCc2ccccc2)c2ncn(C(C)C)c2c1 | 7.26
CC1=NN(c2nc3ccccc3[nH]2)C(=O)/C1=C/N(C)C | 2.9
O=C(Nc1cccc(C(F)(F)F)c1)Nc1ccc(N2CCCC2)c(S(=O)(=O)Nc2ccccc2Cl)c1 | 4.27
Cc1ccc(N=Nc2ccc(O)c3ncccc23)cc1 | 6.58
COc1ccc(S(=O)(=O)Nc2ccc3oc(C)c(C(C)=O)c3c2)cc1 | 12.3
COCC1CCCCN1C(=O)c1cc(COc2ccc3ncccc3c2)on1 (stereo unspecified) | 7.39
c1ccc2c(NCCCN3CCOCC3)c3ccccc3nc2c1 | 6.37
CCCCCCC[n+]1ccc(-c2cc[n+](CCCCCCC)cc2)cc1 | 3
COc1ccc(CNC(=O)c2c(C)oc3c2C(=O)c2ccccc2C3=O)cc1 | 7.42
COc1ccc(N/N=C(/N=Nc2nc(C)cc(=O)[nH]2)c2ccccc2)cc1 | 1.78
O=C(NCc1cccnc1)c1ccc(NC(=O)c2ccc([N+](=O)[O-])cc2)cc1 | 0.215
Cc1ccc2c(c1)nnn2C1CCN(S(=O)(=O)c2ccc(C(=O)N3C(C)CCCC3C)cc2)CC1 (stereo unspecified) | 7.75
Cn1nc(CC(=O)Nc2ccc3c(c2)OCCO3)c2ccccc2c1=O | 5.63
Cn1c(-c2ccccc2)cc2c3no[n+]([O-])c3ccc21 | 7.82
CCC1(OC(=O)CN)C(=O)OCc2c1cc1n(c2=O)Cc2cc3ccccc3nc2-1 (stereo unspecified) | < 0.195
Cc1ccc(C[n+]2cccc(-c3ccccc3)c2)c(C)c1 | 5.1
CC[C@H]1CN2CCc3cc(OC)c(OC)cc3[C@@H]2C[C@@H]1C[C@H]1NCCc2cc(OC)c(OC)cc21 | 9.67
Cc1nc2ccccc2c2oc(C(=O)Nc3ccc(C(C)C)cc3)cc12 | 21.6
Cc1csc2ncnc(NCCc3ccccn3)c12 | 6.88

SMILES | AC50 [µM]
COc1cccc(/C=N/NC(=O)c2c(-c3ccccc3)noc2C)c1O | 8.09
Cc1ccc(-c2nn(-c3ccccc3)cc2/C=N/NC(=O)c2ccc(Br)o2)cc1 | 0.569
COc1ccc(Cc2nnc(N/N=C/c3ccccc3O)[nH]c2=O)cc1OC | 4.32
N#CCC(=O)N/N=C/c1cc(-c2ccccc2)n(-c2ccc(Cl)cc2)c1-c1ccccc1 | 2.29
CC(=O)NC(c1cc(Cl)c2cccnc2c1O)C1CC1 (stereo unspecified) | 7.49
CCCCCn1c(=O)c(C(=O)Nc2ncccc2C)c(O)c2ccccc21 | 6.75
Cc1ccc(/C=N/NC(=O)Cc2ccc(Cl)cc2)c(O)c1 | 12.3
O=C(N/N=C/c1ccc(O)cc1O)c1ccc(CN2C(=O)c3cccc4cccc2c34)cc1 | 3.89
COc1ccc(/C=C/c2cc(-c3ccc(C)cc3)o[n+]2C)cc1 | 0.91
Cc1cc(C)n(CCC(=O)N/N=C/c2c(O)ccc3ccccc23)n1 | 9.78
COc1ccc(NCc2nnc(SCC(=O)Nc3nc(-c4ccccc4)cs3)n2-c2ccccc2)cc1 | 7
CC(=O)Nc1sc2c(c1-c1nc3ccccc3s1)CN(C(C)C)CC2 | 3.79
O=C(Nc1ccc(F)cc1)Nc1cc(OCC(F)(F)F)cc(OCC(F)(F)F)c1 | 2.25
COc1ccccc1CNc1ncnc2sccc12 | 11.9
O=C(Oc1c(Cl)cc(Cl)c2cccnc12)c1cccs1 | 15
CCS(=O)(=O)c1ncc(Cl)c(C(=O)Nc2ccc(S(=O)(=O)N(C)c3ccccc3)cc2)n1 | 6.63
O=C(N/N=C/c1cc(Cl)ccc1O)c1ccccc1Br | 8.9
COc1cc(OC)c2cc(C(=O)N/N=C/c3ccccc3O)[nH]c2c1 | 8.48
COc1cccc(N=Nc2ccc3cccnc3c2O)c1 | 6.8
COc1ccc(C2C(O)C(c3c[nH]c4ccccc34)=NN2C(=O)CCl)cc1 (stereo unspecified) | 2.9
CC(C)CN(C(=O)COC(=O)C12CC3CC(CC(C3)C1)C2)c1c(N)n(Cc2ccccc2)c(=O)[nH]c1=O | 3.89
CCn1c(NN=O)nc2ccccc21 | 7.85
O=C(NCCOc1cccnc1)c1ccc(OC2CCN(Cc3ccccn3)CC2)cc1 | < 0.195

SMILES | AC50 [µM]
CCc1ccc(C(=O)NNc2cc(Cl)ccc2Cl)cc1 | 8
[O-]c1ccccc1-[n+]1c(-c2ccccc2)cc(-c2ccccc2)cc1-c1ccccc1 | 6.87
COc1ccc([C@H]2CC(=O)C=C(c3ccnc4ccc(Cl)cc34)C2)cc1 | 6.01
CC(=O)N1CCCc2cc(S(=O)(=O)N3CCCC(C(=O)N4CCN(c5cccc(Cl)c5)CC4)C3)ccc21 (stereo unspecified) | 7.05
Cc1ccc2c(c1)[nH]c1c(N3CCN(Cc4ccccc4)CC3)ncnc12 | 8.07
c1nc(NCc2ccc3c(c2)OCO3)c2cc(-c3ccc4c(c3)OCCO4)ccc2n1 | 15.5
O=C(/C=C/c1cccc(Cl)c1)c1ccc([N+](=O)[O-])o1 | 3.68
O=C(NCc1ccccc1)C1=C[C@@H](c2csc3ccccc23)C[C@@H](OCCCCO)O1 | 2.67
Cc1cc(C2CCCCC2)n(O)c(=O)c1 | 2.69
O=C(CSc1nc2ccccc2c(=O)n1-c1ccccc1)N1CCc2ccccc2C1 | 3.16
COc1ccc(C(C(=O)NC2CCCCC2)N(C(=O)CCl)c2cccc(Cl)c2)cc1 (stereo unspecified) | 7.03
CC1(C)CC(N2CCN(Cc3ccccc3)CC2)=CC(=[N+]2CCCCC2)C1 | 2.55
COc1ccc(C(=O)NCC(=O)N/N=C/c2ccc([N+](=O)[O-])s2)cc1OC | 13.5
CCOc1cc(C)c(S(=O)(=O)Nc2ccc3cn[nH]c3c2)cc1C | 9.86
CC(=O)c1c(C)oc2ccc(N(C(C)=O)S(=O)(=O)c3cccc4cccnc34)cc12 | 7.79
Cc1nc2ccccc2n1/N=C/c1ccc([N+](=O)[O-])s1 | 1.92
Fc1ccc2nc(Nc3nc4c(F)cc(F)cc4s3)sc2c1 | 7.69
CCOC(=O)N1CCN(c2ncnc3c2[nH]c2ccc(F)cc23)CC1 | 6.43
O=c1cc(CSc2ccc(Cl)cc2)nc(-c2ccccn2)[nH]1 | 11.6
CCOC(=O)C1CCCN(S(=O)(=O)c2ccc(S(=O)(=O)N(CC)CC)cc2)C1 (stereo unspecified) | 3.8
C=CCC1(CC=C)CCCN1C(=O)c1cc(COc2ccc(C)nc2)on1 | 2.54
Cc1occc(=O)c1OC(=O)Nc1ccc(Cl)c(Cl)c1 | 7.74
CC(C)Oc1ccc(C(CCN)C2CCCCC2)cc1 (stereo unspecified) | 13.3

SMILES | AC50 [µM]
COC(=O)c1ccc(NC(=O)c2cccnc2)cc1 | 7.58
Cn1ncc2c(O/N=C(\N)c3ccc(C(C)(C)C)cc3)ncnc21 | 6.59
COc1cccc(C(=O)N/N=C(/c2ccccc2)c2ccccn2)c1 | 3.73
CCOc1ccc(C(=O)c2cc([N+](=O)[O-])ccc2N2CCOCC2)cc1 | 0.371
Clc1ccc(-c2cc(-c3nnc4n3CCCCC4)c3ccccc3n2)cc1 | 4.91
CCCCCCCCCn1c2c(c(=N)c3c1CCC3)CCC2 | < 0.195
Cc1ccc(-c2c[n+](Cc3ccc(Cl)c(Cl)c3)c3n2CCC3)cc1 | 4.72
Oc1ccc(N=Nc2nccs2)c(O)c1 | 6.64
COc1ccc(C(CCNCc2ccc(OC(C)C)cc2)c2ccccc2OC)cc1 (stereo unspecified) | 7.84
Brc1ccccc1CN1CCN(Cc2c[nH]c3ccccc23)CC1 | 2.76
N#CC1=C(N)Oc2c(ccc3cccnc23)C1c1cccnc1 (stereo unspecified) | 7.5
CC(=O)NC(C)c1cc(Cl)c2cccnc2c1O (stereo unspecified) | 10.7
CCCC[n+]1ccn(C2=C([O-])c3ccccc3C(=O)/C2=N\S(=O)(=O)c2ccc(Br)cc2)c1 | 15.2
c1ccc2c(CN3CCCCCCC3)c[nH]c2c1 | 4.48
COc1ccccc1NC1=C(N2CCCCC2)C(=O)c2ccccc2C1=O | 2.21
CCCCCCCCCCOC(=O)Cn1c(COc2ccc(C)cc2)[n+](C)c2ccccc21 | 4
C/C(=N\NC(=O)Cc1ccc(Cl)cc1)c1ccccn1 | 4.89
COc1ccc(Cn2c(-c3ccc(C)cc3)c[n+]3ccccc23)cc1 | 5.23
N=c1c2c(n(Cc3ccc(Cl)c(Cl)c3)c3c1CCC3)CCCC2 | 3.57
CCOC(=O)c1c(C)[nH]c(C(=O)N/N=C\c2ccccc2O)c1C | 6.52
CCOc1ccc(-n2c(-c3ccc(Br)cc3)c[n+]3c2CCCCC3)cc1 | 1
Nc1ccc2c(c1)C(=O)C(=O)c1ccccc1-2 | 1.2
O=C(NNC(=O)c1cccnc1SCc1cccc([N+](=O)[O-])c1)c1ccc(F)cc1 | 15.8

SMILES | AC50 [µM]
C/C(=N\NC(=O)c1cc(C)nc2ccccc12)c1ccccn1 | 2.83
COc1ccc(-c2cn(-c3ccc(Cl)cc3)c3[n+]2CCCCC3)cc1 | 2
Cc1ccc(S(=O)(=O)NCc2ccncc2)cc1C | 4.92
O=C(Cc1ccc(Cl)cc1)c1c[nH]c(C(=O)NCc2cccnc2)c1 | 0.665
CCOC(=O)C1CCN(C(=O)c2c(C)oc3c2C(=O)c2ccccc2C3=O)CC1 | 17.4
COC1=C(Nc2ccccc2)C(=O)c2ccccc2C1=O | 17.4
COC(=O)c1c(C)oc2ccc(N(C(=O)c3ccncc3)S(=O)(=O)c3ccc(C)cc3C)cc12 | 5.76
CC[n+]1ccc(/C=C/c2c[nH]c3ccccc23)cc1 | 5.85
Cn1nc(-c2ccccn2)nc2c(=O)n(C)c(=O)nc1-2 | 3.1
O=C1C(=O)c2ccc(-c3ccccc3)cc2-c2ccccc21 | 1.1
CCC(=NNC(=O)c1ccc2c(c1)nc(C)n2CC)c1cc(F)ccc1O | 9.84
O=C(/C=C/NNC(=O)c1ccccc1)c1ccc([N+](=O)[O-])cc1 | 5.76
Cc1ccc2nc(NC(=O)c3ccccn3)sc2c1 | 9.36
CCn1c(C)nc2cc(-c3nnc(-c4c(-c5ccccc5)noc4C)o3)ccc21 | 5.18
Cc1cc(-c2ccccc2)n(-c2cc(N/N=C/c3ccccc3O)ncn2)n1 | 7.17
Cc1ccc(-c2csc(N3CCC(NS(=O)(=O)c4ccc5c(c4)OCCO5)CC3)n2)cc1 | 6.85
Cc1cc(C)nc(SCC(=O)Nc2ccnc3ccccc23)n1 | 7.55
CCN(c1ccccc1)S(=O)(=O)c1ccc(NC(=O)c2nc(S(C)(=O)=O)ncc2Cl)cc1 | 8.95
Cc1ccc2nc(-c3ccccn3)c(Nc3ccccc3C)n2c1 | 9.99
